According to ChEMBL document CHEMBL1125304, “Synthesis and antitumor activity of 3- and 5-hydroxy-4-methylpyridine-2-carboxaldehyde thiosemicarbazones” (1992):

Experiments:
Mus musculus [1] = test: Ratio of the survival time of treated to control mice bearing the L1210 leukemia after intraperitoneal administration of the 40 mg/kg compound in the DMSO solution form
Mus musculus [2] = test: Average weight change of mice bearing the L1210 leukemia (24 hr after tumor implantation) after intraperitoneal administration of the 40 mg/kg compound in the DMSO solution form
Mus musculus [3] = test: Ratio of the survival time of treated to control mice bearing the L1210 leukemia after intraperitoneal administration of the 50 mg/kg compound in the suspension form
Mus musculus [4] = test: Average weight change of mice bearing the L1210 leukemia (24 hr after tumor implantation) after intraperitoneal administration of the 50 mg/kg compound in the suspension form
Mus musculus [5] = test: Ratio of the survival time of treated to control mice bearing the L1210 leukemia after intraperitoneal administration of the 40 mg/kg compound in the suspension form
Mus musculus [6] = test: Average weight change of mice bearing the L1210 leukemia (24 hr after tumor implantation) after intraperitoneal administration of the 40 mg/kg compound in the suspension form

SMILES | T/C (Mus musculus [1]) [%] | Average weight change (Mus musculus [2]) [%] | T/C (Mus musculus [3]) [%] | Average weight change (Mus musculus [4]) [%] | T/C (Mus musculus [5]) [%] | Average weight change (Mus musculus [6]) [%]
N/C(S)=N/N=C/c1ncccc1O | 114 | 1.5 | – | – | – | –
Cc1ccnc(/C=N/N=C(/N)S)c1O | 135 | 0.5 | 168 | 0.9 | – | –
Cc1cc(/C=N/N=C(/N)S)ncc1O | 138 | -7.4 | – | – | 186 | -3.4
N/C(S)=N/N=C/c1ccc(O)cn1 | 132 | 1.8 | – | – | – | –
